Series [1] concerns S. typhimurium TA100. As to conditions: 40 μg/mL, without metabolic activation. On the procedure: (§1) Potential mutagenicity or pro-mutagenicity of non-heated and heated ST, ST-LA, and ST-OA was determined using the bacterial reverse mutation assay (Ames test) with Salmonella enterica subsp. enterica ser. typhimurium tester strains TA98, TA100, and TA102, which were obtained from the Polish Collection of Microorganisms of the Institute of Immunology and Experimental Therapy of the Polish Academy of Sciences in Wroclaw.
(§2) Mutagenicity experiments were performed in the liquid pre-incubation assay, without and with metabolic activation by supplying Aroclor 1254-induced rat liver microsomal fraction (S9, Sigma-Aldrich) with NADP and cofactors for NADPH-supported oxidation, according to the procedure described by Mortelmans and Zeiger[39]. Briefly, reaction mixtures, consisting of 12-h bacterial culture, non-heated and heated compound (ST, ST-LA, ST-OA) at a concentration of 40 μg, 0.2 M phosphate buffer (pH 7.4), and alternatively S9 activating mixture, were pre-incubated at 37 °C for 20 min. […] The mutagen, 2-aminoanthracene (5 μg) (Sigma-Aldrich), was a positive control in pro-mutagenicity experiments. After pre-incubation, the reaction mixtures were added to the top agar supplemented with traces of histidine and biotin and poured onto the plates covered with minimum glucose agar. The cultures were incubated for 48 h at 37 °C, and the number of revertants (His+) colonies was counted manually.
(§3) Compounds with MI ≥ 2 can be recognized as potentially mutagenic.

The subject of series [2] is CCD 841 CoN cells. In words: Cell cycle analysis by flow cytometry (propidium iodide). The class given is cell-based, human. The following applies: 40 μg/mL, 24 h. On the procedure:
CCD 841 CoN cells were grown in 6-well plates at an initial cell density of 2 × 10^4 cells/cm^2 for 24 h under standard culture conditions. The cells were treated for 24 h with the analyzed compounds at a concentration of 40 μg/mL; the high dose was applied because of the relatively low cytotoxic potential of ST-OA and ST-LA as determined in cytotoxicity studies. In addition, the cells were exposed to 0.05 μM camptothecin (Sigma-Aldrich) as a positive reference compound known to modulate cell cycle progression.
After treatment, the cells were harvested by trypsinization, washed in PBS, and fixed in 70% ethanol. Then, the cells were stained with 50 μg/mL propidium iodide in the presence of 100 μg/mL RNase (Sigma-Aldrich). The sample preparation method and staining protocol were described previously. The cycle phase distribution was analyzed with an Amnis™ FlowSight™ flow cytometer (Luminex Corporation, TX, USA).
(In general: In flow cytometry, cells or beads pass a laser one at a time.)

Series [3] concerns CCD 841 CoN cells. As to the kind of experiment: DNA synthesis, BrdU incorporation (Cell Proliferation ELISA). In kind it is cell-based, human. As to conditions: 48 h. Here is the method:
CCD 841 CoN cells were grown in black 96-well plates at an initial cell density of 2 × 10^4 cells/cm^2 for 24 h under standard culture conditions. The cells were treated with ST (2.5, 5, 10, 20, and 40 μg/mL) and its esters ST-OA and ST-LA (10, 20, and 40 μg/mL) for 48 h. DNA synthesis was measured by incorporating thymidine analog 5-bromo-2′-deoxyuridine (BrdU) into newly synthesized DNA using the Cell Proliferation ELISA kit according to the protocol recommended by the manufacturer (Roche Diagnostics GmbH, Mannheim, Germany). Briefly, BrdU was added to the treated cells 24 h before the end of the exposure to the ST, ST-OA, and ST-LA (final BrdU concentration of 10 μM). After treatment, BrdU-labeled DNA was denatured (30 min, 20 °C). Then, BrdU was bonded with a peroxidase-conjugated anti-BrdU antibody (90 min, 20 °C) and reacted with the peroxidase substrate. The absorbance measurement was done with a stop solution (1 M H2SO4) at 450 nm with reference wavelength 690 nm using a Tecan M200 Infinite microplate reader.

For series [4], the system named is S. typhimurium TA98. In words: Bacterial reverse mutation assay (Ames test), strain TA98. The following applies: 40 μg/mL, with microsomal fraction (+ S9). On the procedure:
as §1, §2, §3
For orientation: The Ames test uses bacterial strains that need an amino acid and regain growth without it when mutated back.

The test system of series [5] is intracellular ROS in CCD 841 CoN cells. As to the kind of experiment: Intracellular ROS measurement (DCFH-DA, flow cytometry). The class given is cell-based, human. The following applies: up to 40 μg/mL, 24 h. On the procedure:
CCD 841 CoN cells were grown in 6-well plates at an initial cell density of 2 × 10^4 cells/cm^2 for 24 h under standard culture conditions. The cell cultures were treated for 24 h with the analyzed compounds at a 40 μg/mL concentration. After treatment, the cells were harvested by trypsinization, washed with Hank's Balanced Salt Solution, and incubated with 10 μM 2′,7′-Dichlorodihydrofluorescein diacetate (DCFH-DA) (Life Technologies, Carlsbad, CA, USA) at 37 °C for 30 min. Intracellular DCF fluorescence (λex/em = 488/530 nm) was examined by flow cytometry (Amnis™ FlowSight™ flow cytometer).

Molecules are shown by their SMILES.

As for `CC[C@H](/C=C/[C@@H](C)[C@H]1CC[C@H]2[C@@H]3CC=C4C[C@@H](O)CC[C@]4(C)[C@H]3CC[C@]12C)C(C)C` [ST, Stigmasterol], the “Mutagenic index TA100” value in series [1] is given as 1.9. For the same molecule, the “cell accumulation in G2/M phases” value in series [2] was “significant cell accumulation in the G2/M phases”. The “decrease in DNA synthesis (BrdU incorporation)” value in series [3] (5 μg/mL, P = 0.028) stood at 10%; in series [3] (40 μg/mL), 61%. Besides, the “first dose that significantly inhibited DNA synthesis” value in series [3] was determined as 5 µg/mL. Besides, in series [4], the “increase in number of revertant colonies TA98” value was 1.6 fold. Moreover, the “intracellular ROS production / oxidative reactivity” value in series [5] is on record as “did not induce enhanced intracellular ROS production”.
